Earlier results, collected in patent US4820521A, “Sustained absorption pharmaceutical composition” (priority 1983, dated 1989).

Experiments:
[1] = versus caffeine
involuntary muscle = details: versus theobromine and caffeine
[2] = human, in vivo

For Cn1c(=O)c2[nH]cnc2n(C)c1=O [Theophylline, 1,3-dimethylxanthine], the “diuretic action (in words)” value [1] is listed as “stronger than that of caffeine is of short duration”, the “minimum effective plasma concentration” value (in vivo) is listed as “about 5 mcg/ml” and the average therapeutic concentration (plasma) is listed as “about 10 mcg/ml”. For the same compound, the “therapeutic range of concentration” value (plasma) was 10 to 20 µg/mL, the “toxicity of levels above 20 mcg/ml” value (plasma levels above 20 mcg/ml) was “toxic” and the “effect of levels below 10 mcg/ml” value (plasma levels below 10 mcg/ml) was “ineffective”. For the same compound, the “relaxant of involuntary muscle (in words)” value (involuntary muscle) was “more powerful relaxant of involuntary muscle than either theobromine or caffeine” and the apparent biological half-life [2] was 4-9 hours.
